Where a name gives a salt, the structure may show the parent alone.
Assays:
Type in all cases: cell-based
Conditions in all cases: ratio to NECA
adenosine 3 receptor = molecular target: T1, adenosine 3 receptor (Homo sapiens, UniProt P0DMS8); assay: Agonist activity, CHO cells transfected with human adenosine receptor and CRE-SPAP reporter; forskolin-enhanced cAMP (A3)
T1 construct: expressed in transfected cells; host or cells: CHO cells
T1 sequence (P0DMS8 1-318): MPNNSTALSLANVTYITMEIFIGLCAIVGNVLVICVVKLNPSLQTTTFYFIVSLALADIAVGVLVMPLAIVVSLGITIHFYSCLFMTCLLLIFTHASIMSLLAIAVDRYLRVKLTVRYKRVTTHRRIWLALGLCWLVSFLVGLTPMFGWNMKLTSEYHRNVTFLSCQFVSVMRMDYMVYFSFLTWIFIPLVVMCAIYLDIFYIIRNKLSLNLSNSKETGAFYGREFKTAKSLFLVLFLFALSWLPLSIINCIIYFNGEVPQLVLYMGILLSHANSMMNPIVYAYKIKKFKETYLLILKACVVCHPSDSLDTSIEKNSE
Experimental: (§1) (1) Agonist activity against adenosine 2a, adenosine 1 and adenosine 3 receptor subtypes.
(§2) Agonist selectivity of compounds against other human adenosine receptors is determined using Chinese hamster ovary (CHO) cells transfected with the gene for the relevant human adenosine receptor following a method based on that of Castanon and Spevak, 1994. The CHO cells are also transfected with cyclic AMP response elements promoting the gene for secreted placental alkaline phosphatase (SPAP) (Wood, 1995). The effect of test compounds may be determined by their effects on basal levels of CAMP (A2a) or on forskolin-enhanced cAMP (A1 and A3) as reflected by changes in levels of SPAP. EC50 values for compounds may then be determined as a ratio to that of the non-selective agonist N-ethyl carboxamide adenosine (NECA).

adenosine 1 receptor = molecular target: T2, adenosine 1 receptor (Homo sapiens, UniProt P30542); assay: Agonist activity, CHO cells transfected with human adenosine receptor and CRE-SPAP reporter; forskolin-enhanced cAMP (A1)
T2 construct: expressed in transfected cells; host or cells: CHO cells
T2 sequence (P30542 1-326): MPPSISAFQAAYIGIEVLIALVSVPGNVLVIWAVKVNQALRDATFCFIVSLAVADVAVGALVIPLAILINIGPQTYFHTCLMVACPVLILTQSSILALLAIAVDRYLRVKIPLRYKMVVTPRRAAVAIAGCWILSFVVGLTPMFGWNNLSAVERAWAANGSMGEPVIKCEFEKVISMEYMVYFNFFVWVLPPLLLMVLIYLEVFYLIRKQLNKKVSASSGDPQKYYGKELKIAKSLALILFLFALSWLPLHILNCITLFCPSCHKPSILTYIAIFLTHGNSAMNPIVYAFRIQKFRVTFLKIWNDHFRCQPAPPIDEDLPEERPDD
Experimental: as §1, §2

adenosine 2a receptor = molecular target: T3, adenosine 2a receptor (Homo sapiens, UniProt P29274); assay: Agonist activity, CHO cells transfected with human adenosine receptor and CRE-SPAP reporter; basal cAMP (A2a)
T3 construct: expressed in transfected cells; host or cells: CHO cells
Experimental: as §1, §2

[1] = * data are minimum values since preparation was found, after testing, to contain an inactive impurity

T3 sequence (P29274 whole entry): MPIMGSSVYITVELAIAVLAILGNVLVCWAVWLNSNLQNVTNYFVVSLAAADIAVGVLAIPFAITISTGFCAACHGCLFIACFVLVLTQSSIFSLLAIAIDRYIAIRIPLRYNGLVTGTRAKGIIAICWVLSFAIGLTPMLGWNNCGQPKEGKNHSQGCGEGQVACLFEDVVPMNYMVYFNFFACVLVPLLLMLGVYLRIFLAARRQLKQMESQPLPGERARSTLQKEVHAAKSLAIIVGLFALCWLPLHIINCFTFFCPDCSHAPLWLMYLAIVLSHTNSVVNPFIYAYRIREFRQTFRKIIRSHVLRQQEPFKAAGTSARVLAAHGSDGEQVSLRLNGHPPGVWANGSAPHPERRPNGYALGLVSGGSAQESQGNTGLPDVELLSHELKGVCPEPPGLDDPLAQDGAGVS

SMILES	A3, EC50 as a ratio of that of NECA (adenosine 3 receptor; [1])	A1, EC50 as a ratio of that of NECA (adenosine 1 receptor; [1])	A2a, EC50 as a ratio of that of NECA (adenosine 2a receptor; [1])	A3, EC50 as a ratio of that of NECA (adenosine 3 receptor; CHO cells, SPAP readout)	A1, EC50 as a ratio of that of NECA (adenosine 1 receptor; CHO cells, SPAP readout)	A2a, EC50 as a ratio of that of NECA (adenosine 2a receptor; CHO cells, SPAP readout)
CCC(CC)Nc1nc(NC(CO)Cc2ccccc2)nc2c1ncn2C1OC(c2nc(C)no2)C(O)C1O [Example 17, (2R,3R,4S,5S)-2-[6-(1-Ethyl-propylamino)-2-(1S-hydroxymethyl-2-phenl-ethylamino)-purin-9-yl]-5-(3-methyl-[1,2,4]oxadiazol-5-yl)-tetrahydro-furan-3,4-diol formate]	>362	>6244	3.97	–	–	–
CCC(CC)Nc1nc(NCCN2CCCCC2)nc2c1ncn2C1OC(c2nc(C3CC3)no2)C(O)C1O [Example 35, (2S,3S,4R,5R)-2-(3-Cyclopropyl-[1,2,4]oxadiazol-5-yl)-5-[6-(1-ethyl-propylamino)-2-(2-piperidin-1-yl-ethylamino)-purin-9-yl]-tetrahydro-furan-3,4-diolldiformate]	–	–	–	>194	912.1	7.89
CCc1noc(C2OC(n3cnc4c(NCCC5CCCCC5)nc(NCCc5cn(C)cn5)nc43)C(O)C2O)n1.O=CO.O=CO [Example 47, (2R,3R,4S,5S)-2-{6-(2-cyclohexylethylamino)-2-[2-(1-methyl-1H-imidazol4-yl)ethylamino]-purin-9-yl}-5-(3-ethyl-[1,2,4]oxadiazol-5-yl)-tetrahydro-furan-3,4-diol diformate]	–	–	–	>165	4993.28	6.93
CCC(CC)Nc1nc(N[C@H]2CC[C@H](N)CC2)nc2c1ncn2[C@@H]1O[C@H](c2nc(C)no2)[C@@H](O)[C@H]1O.O=CO [Example 16, (2R,3R,4S,5S)-2-[2-(trans-4-Amino-cyclohexylamino)-6-(1-ethyl-propylamino)-purin-9-yl]-5-(3-methyl-[1,2,4]oxadiazol-5-yl)tetrahydro-furan-3,4-diol formate]	>362	>6244	11.87	–	–	–
Cc1noc(C2OC(n3cnc4c(N)nc(NC(CO)Cc5ccccc5)nc43)C(O)C2O)n1 [Example 12, (2R,3R,4S,5S)-2-[6-Amino-2-(1S-hydroxymethyl-2-phenyl-ethylamino)-purin-9-yl]-5-(3-methyl-[1,2,4]oxadiazol-5-yl)-tetrahydro-furan-3,4-diol formate]	>302	1863.5	4.54	–	–	–
CCc1noc([C@H]2O[C@@H](n3cnc4c(NCC(c5ccccc5)c5ccccc5)nc(NCCc5cn(C)cn5)nc43)[C@H](O)[C@@H]2O)n1.O=C(O)C(F)F.O=C(O)C(F)F [Example 2]	–	–	–	>197	1823	0.64
CCC(CC)Nc1nc(NCCc2cn(C)cn2)nc2c1ncn2[C@@H]1O[C@H](c2nc(C)no2)[C@@H](O)[C@H]1O.O=CO [Example 14, (2R,3R,4S,5S)-2-{6-(1-Ethyl-propylamino)-2-[2-(1-methyl-1H-imidazol-4-yl)-ethylamino]-purin-9-yl}-5-(3-methyl-[1,2,4]oxadiazol-5-yl)-tetrahydro-furan-3,4-diol formate]	–	–	–	>239	>4587	0.66
CCc1noc([C@H]2O[C@@H](n3cnc4c(NC(CC)CC)nc(NCCc5cn(C)cn5)nc43)[C@H](O)[C@@H]2O)n1.O=CO [Example 13, (2S,3S,4R,5R)-2-(3-Ethyl-[1,2,4]oxadiazol-5-yl)-5-(6-(1-ethyl-propylamino)-2-[2-(1-methyl-1H-imidazol-4-yl)-ethylamino]-purin-9-yl}tetrahydro-furan-3,4-diol formate]	–	–	–	>289	>=4370	0.61
CCc1noc(C2OC(n3cnc4c(NCC(c5ccccc5)c5ccccc5)nc(NC5CCNC5)nc43)C(O)C2O)n1 [Example 3, (2R,3R,4S,5S)-2-[6-(2,2-Diphenyl-ethylamino)-2-(pyrrolidin-3R-ylamino)-purin-9-yl]-5-(3-ethyl-[1,2,4]oxadiazol-5-yl)-tetrahydro-furan-3,4-diol formate]	>304	6719	4.63	–	–	–
CCc1noc(C2OC(n3cnc4c(NCC(c5ccccc5)c5ccccc5)nc(NC5CCC(N)CC5)nc43)C(O)C2O)n1.O=CO.O=CO [Example 4, (2R,3R,4S,5S)-2-[2-(trans-4-Amino-cyclohexylamino)-6-(2,2-diphenyl-ethylamino)-purin-9-yl]-5-(3-ethyl-[1,2,4]oxadiazol-5-yl)-tetrahydro-furan-3,4-diol diformate]	–	–	–	>383	>=3996	5.37
CCC(CC)Nc1nc(NC2CCNC2)nc2c1ncn2C1OC(c2nc(C)no2)C(O)C1O [Example 26, (2R,3R,4S,5S)-2-[6-(1-Ethyl-propylamino)-2-(pyrrolidin-3R-ylamino)-purin-9-yl]-5-(3-methyl-[1,2,4]oxadiazol-5-yl)-tetrahydro-furan-3,4-diol formate]	>284	>5264	5.18	–	–	–
CCC(CC)Nc1nc(NC2CCCC2)nc2c1ncn2[C@@H]1O[C@H](c2nc(C)no2)[C@@H](O)[C@H]1O.O=CO [Example 22]	–	–	–	>193	78.28	22.25
Cc1noc(C2OC(n3cnc4c(N)nc(NCCc5ccccn5)nc43)C(O)C2O)n1.O=CO.O=CO (stereo not drawn) [Example 30]	>215	1460.7	19.54	–	–	–
Cc1noc([C@H]2O[C@@H](n3cnc4c(N)nc(NCCc5cn(C)cn5)nc43)[C@H](O)[C@@H]2O)n1.O=C(O)C(F)(F)F.O=C(O)C(F)(F)F [Example 7]	>117	1013.4	11.02	–	–	–
CCc1noc([C@H]2O[C@@H](n3cnc4c(NCC(c5ccccc5)c5ccccc5)nc(NCCN5CCCCC5)nc43)[C@H](O)[C@@H]2O)n1.O=CO [Example 32, (2R,3R,4S,5S)-2-[6-(2,2-Diphenyl-ethylamino)-2-(2-piperidin-1-yl-ethylamino)-purin-9-yl]-5-(3-ethyl-[1,2,4]oxadiazol-5-yl)-tetrahydro-furan-3,4-diol formate]	–	–	–	>258	7521	31.4
CCC(CC)Nc1nc(NCCN2CCCCC2)nc2c1ncn2[C@@H]1O[C@H](c2nc(C)no2)[C@@H](O)[C@H]1O.O=CO [Example 18, (2R,3R,4S,5S)-2-[6-(1-Ethyl-propylamino)-2-(2-piperidin-1-yl-ethylamino)-purin-9-yl]-5-(3-methyl-[1,2,4]oxadiazol-5-yl)-tetrahydro-furan-3,4-diol formate]	>314	>6244	8.16	–	–	–
CCC(CC)Nc1nc(NCCc2ccccn2)nc2c1ncn2[C@@H]1O[C@H](c2nc(C3CC3)no2)[C@@H](O)[C@H]1O.O=CO.O=CO [Example 37]	–	–	–	>87	>10402	49.45
